Data from patent US20230381213A1, “SYNTHESIS AND USES OF GINSENOSIDE COMPOUND K DERIVATIVES” (The University of Hong Kong, priority 2022, published 2023).
Where two headings read alike, the source gives them in different places.

How the values were obtained:
PRELID3b = target: T1, PRELID3b (Homo sapiens, UniProt Q9Y3B1); assay: Cellular thermal shift assay by western blotting, PRELID3b; assay type: cell-based; conditions: A549 cells, one hour
T1 construct: endogenous in cells; host or cells: A549
Protocol: A549 cells were treated with 50 μM of CK or 15 uM of CKD-4 for one hour, where eight lysate aliquots were heated to indicated temperature.
(§1) Most probable target candidate proteins are ranked in PISA based on the absolute value of log2 ΔSm of drug relative to DMSO treatment and PTM ranking are based on the log2 fold change of drug over DMSO treatment. The rankings of two experiments are summed to provide a list of candidate drug targets.

MS 1 cells = assay: Tube formation (angiogenesis) on Matrigel; assay type: cell-based; conditions: 4 hours
Protocol: (§2) The effect of CK and CKD-4 on cell apoptosis and cell death is indicated by A549 cells treated with 60 μM of CK and 20 μM of CKD-4 for 48 hours that are analyzed by flow cytometry. […] Angiogenesis is another hallmark of cancer which plays an important role in metastasis and tumor growth. […] Cancer stem cells, owing to their ability of self-renewal, have become the major reason for relapse of tumor and poor prognosis. The efficacy of CKD-4 in lung cancer patient derived organoid is indicated using CellTiterGlo assay, where three state of the art clinical anti-cancer drugs, carboplatin, cisplatin, and paclitaxel are a positive control. The dosage of these three drugs is sufficient to trigger a 30% inhibition of cell viability. FIG. 6 and FIG. 7 indicated less than 30% suppression of cell viability is observed with treatment of 20 μM CKD-4.

PRELID1 [1] = target: T2, PRELID1 (Homo sapiens, UniProt Q9Y255); assay: Proteome integral solubility alteration (PISA) in cells; assay type: cell-based; conditions: in cell
T2 construct: endogenous in cells; host or cells: A549
Source text: Two label free chemical proteomics, proteome integral […] alteration assay (PISA) and ProtargetMiner (PTM) are alternative strategies to study CK and CKD-4. PISA is a turbo-charged method development of thermal proteome profiling (TPP) which based on the principle that ligand induced stability of proteins is observed upon a temperature increase. PTM is used to contrast the proteome signature of CK and CKD-4 against the PTM database to reveal their mode of action. FIGS. 9A and 9B provide an overview of the PISA results in cells with CK and CKD-4, where data is shown as a volcano plot with the X-axis as log2 ΔSm of drug over DMSO treatment and the Y-axis as log 10 p-value. In FIGS. 10 and 11 the PTM result of CK and CKD-4 in cells are compared to 9 other anti-cancer drugs in A549 cells in the database and is plotted for OPLS-DA analysis.
as §1

PRELID3b-TRIAP1-MBP = target: T3, PRELID3b-TRIAP1-MBP (Homo sapiens, UniProt Q9Y3B1); assay: Biolayer interferometry with his tag PRELID3b-TRIAP1-MBP; assay type: binding; conditions: for Kd: steady-state analysis, 1:1
T3 construct: made in house
Source text: To validate the docking analysis, biolayer interferometry (BLI) was employed to measure the interaction between PRELID3b and CK or CKD-4. The recombinant protein was purified by co-expression of PRELID3b with a hexa-histidine tag and the p53 regulated protein, TRIAP1 conjugated with maltose binding protein (MBP). The reported crystal structure of RELID3b is in complex with TRIAP1 and they form as a swapped dimer. PRELID3b is intrinsically unstable in the absence of TRIAP1 and easily degraded by mitochondrial protease. Maltose binding protein (MBP) is a necessary component to improve the solubility of the whole protein complex.
(§3) The sensor used is coated with Ni NTA so that proteins with the hexa-histidine tag could be immobilized on the sensor. After immobilization with protein, the sensor was incubated with the compounds at different concentrations in an ascending order. Both the stoichiometry of CK or CKD-4 with PRELID3b is in a 1:1 ratio but the kinetic modes for the two cases are different. […] The result is consistent with the docking analysis showing that the interaction between CKD-4 and PRELID3b is stronger than with CK.

A549 cells [2] = assay: Cytotoxicity in A549 cells; assay type: cell-based; conditions: Homo sapiens
NCI-H460 cells [3] = assay: MTT cytotoxicity in NCI-H460 cells
MBP = MBP (Escherichia coli, UniProt P0AEX9); assay: Biolayer interferometry with his tag MBP (control); assay type: binding; conditions: various concentrations
Protocol: as §3

A549 cells [4] = assay type: in vitro ADME; conditions: human, 10 μM
Source text: To explore the stability of CKD-4, the amount of CK in CKD-4 treated A549 cells was also quantified.

A549 cells [5] = assay: Apoptosis by flow cytometry (Annexin V-FITC / propidium iodide); assay type: cell-based; conditions: 48 hours
Protocol: as §2

NCI-H460 xenografts = NCI-H460 xenografts in nude mice; assay type: in vivo; conditions: 5 mg/kg intravenous once every two days; for Tumor volume: versus solvent control
PRELID1 [6] = target: T2, PRELID1; assay: Cellular thermal shift assay by western blotting, PRELID1; assay type: cell-based; conditions: A549 cells, one hour
Protocol: A549 cells were treated with 50 μM of CK or 15 μM of CKD-4 for one hour, where eight lysate aliquots were heated to indicated temperature.
as §1

A549 cells [7] = assay: Cell viability with phosphatidylglycerol (PG) supplement, NBB assay; assay type: cell-based; conditions: 24 hours, PG supplemented DMEM versus DMEM
Protocol: FIG. 15C is a bar chart of the cell viability of A549 after treatment with 100 μM of CK or 12.5 μM of CKD-4 for 24 hours in DMEM or phosphatidylglycerol (PG) supplemented DMEM as mean±SD, ***P≤0.001.
(§4) PRELID3b and PRELID1 are PRELI proteins. These proteins and TRIAP1 locate within the inter membrane space responsible for the regulation of phospholipid metabolism. Therefore, a cardiolipin probe is used to measure levels of mitochondrial cardiolipin after drug treatment. […] A decreased level of cardiolipin in PRELI or TRIAP1 depleted cells appears to accelerate the release of cytochrome c, rendering cells vulnerable to apoptosis. […] Cardiolipin is synthesized by a series of steps with phosphatidylglycerol (PG) as the precursor of last step catalyzing by cardiolipin synthase.

NCI-H1650 cells = assay: Cytotoxicity in NCI-H1650 cells; assay type: cell-based; conditions: Homo sapiens
[8] = tested on: cytochrome c release in A549 cells; assay: Cytochrome c in cytosol fractions, western blotting; assay type: cell-based; conditions: for Level of cytochrome c in cytosol: 24-hour treatment; for Cytochrome c release with PG in medium: 24 hours, with PG versus without PG
Source text: as §4

[9] = tested on: CCD-19Lu lung normal fibroblast; assay: Cytotoxicity in lung normal fibroblast CCD-19Lu; assay type: cell-based; conditions: Homo sapiens
[10] = tested on: cardiolipin in A549 cells; assay: Mitochondrial cardiolipin quantification with cardiolipin probe; assay type: cell-based; conditions: 24-hour treatment
Protocol: FIG. 15A is a bar chart of the CK and CKD-4 induced apoptosis by quantification of cardiolipin in mitochondrial after treatment with CK or CKD-4 for 24 hours in A549 cells as mean±SD, **, P≤0.01, *, P≤0.05.
as §4

NCI-H460 cells [11] = tested on: NCI-H460 cells
[12] = tested on: lung cancer patient derived organoid; assay: Lung cancer patient derived organoid viability, CellTiterGlo; assay type: cell-based; conditions: 72 hours
Protocol: as §2

MHCC97-L cells = assay: MTT cytotoxicity in MHCC97-L cells; assay type: cell-based; conditions: MHCC97L; MHCC97-L liver cancer, 72 hours
SW480 cells = assay: MTT cytotoxicity in SW480 cells; assay type: cell-based; conditions: Homo sapiens; SW480 colon cancer, 72 hours
HepG2 cells = assay: MTT cytotoxicity in HepG2 cells; assay type: cell-based; conditions: Homo sapiens; HepG2 liver cancer, 72 hours
Hela cells = assay: MTT cytotoxicity in Hela cells; assay type: cell-based; conditions: Homo sapiens; Hela cervical cancer, 72 hours
Solubility = assay type: physicochemical; conditions: even in dimethyl sulfoxide (DMSO)
[13] = A549, 24 h, read-out: IC50 24 h
[14] = A549, 48 h, read-out: IC50 48 h
[15] = A549, 72 h, read-out: IC50 72 h
[16] = Homo sapiens, NCI-H460, 24 h, read-out: IC50 24 h
[17] = Homo sapiens, NCI-H460, 48 h, read-out: Cytotoxicity IC50
[18] = Homo sapiens, NCI-H460, 72 h, read-out: IC50 72 h
[19] = NCI-H1650, 24 h, read-out: IC50 24 h
[20] = NCI-H1650, 48 h, read-out: IC50 48 h
[21] = NCI-H1650, 72 h, read-out: IC50 72 h

T3 sequence (Q9Y3B1 whole entry): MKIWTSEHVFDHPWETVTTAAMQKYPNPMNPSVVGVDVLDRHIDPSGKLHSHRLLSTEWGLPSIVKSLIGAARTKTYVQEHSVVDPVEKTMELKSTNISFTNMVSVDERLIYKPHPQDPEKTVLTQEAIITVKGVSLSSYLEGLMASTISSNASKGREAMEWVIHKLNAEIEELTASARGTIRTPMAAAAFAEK
T2 sequence (Q9Y255 whole entry): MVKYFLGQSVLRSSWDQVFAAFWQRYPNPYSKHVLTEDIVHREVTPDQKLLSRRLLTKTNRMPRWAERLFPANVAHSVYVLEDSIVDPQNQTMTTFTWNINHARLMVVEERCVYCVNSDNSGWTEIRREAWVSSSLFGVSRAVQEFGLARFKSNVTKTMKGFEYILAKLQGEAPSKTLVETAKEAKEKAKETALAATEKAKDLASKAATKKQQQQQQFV
T2 sequence (O43715 whole entry partner): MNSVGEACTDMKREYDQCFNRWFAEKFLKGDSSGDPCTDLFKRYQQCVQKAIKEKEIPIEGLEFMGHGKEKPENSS
T1 sequence (Q9Y3B1 whole entry): as the sequence (Q9Y3B1 whole entry) above
T1 sequence (O43715 whole entry partner): as the sequence (O43715 whole entry partner) above

| Structure (SMILES) | PRELID1 stability in PISA (PRELID1 [1]) | Kinetic mode (on/off rate) (PRELID3b-TRIAP1-MBP) | Kd (PRELID3b-TRIAP1-MBP) [µM] | IC50 (A549 cells [2]; [13]) [µM] | IC50 (A549 cells [2]; [14]) [µM] | IC50 (A549 cells [2]; [15]) [µM] | IC50 (NCI-H460 cells [3]; [16]) [µM] | IC50 (NCI-H460 cells [3]; [17]) [µM] | IC50 (NCI-H460 cells [3]; [18]) [µM] | Response with MBP (MBP) | Body weight (NCI-H460 xenografts) | Tumor volume (NCI-H460 xenografts) | IC50 (NCI-H1650 cells; [19]) [µM] | IC50 (NCI-H1650 cells; [20]) [µM] | IC50 (NCI-H1650 cells; [21]) [µM] | IC50 ([9]; 24 h, read-out: IC50 24 h) [µM] | IC50 ([9]; 48 h, read-out: IC50 48 h) [µM] | IC50 ([9]; 72 h, read-out: IC50 72 h) [µM] | Amount of mitochondrial cardiolipin [10] | also measured |
| --- | --- | --- | --- | --- | --- | --- | --- | --- | --- | --- | --- | --- | --- | --- | --- | --- | --- | --- | --- | --- |
| COc1ccc(C2OCC3OC(OC(C)(CCC=C(C)C)C4CCC5(C)C4C(O)CC4C6(C)CCC(O)C(C)(C)C6CCC45C)C(O)C(O)C3O2)cc1 (centres unmarked) [CKD-4] | stabilized | slower | 5.3 | 30.8 ± 3.7 | 23.9 ± 0.9 | 17.4 ± 1.2 | 23.3 ± 1.4 | 16.5 | 15.4 ± 0.1 | no does-dependent response | No significant change in body weight | significant tumor volume inhibition | 43.7 ± 4.4 | 25.1 ± 1.5 | 20.3 ± 1.1 | 57.5 ± 0.6 | 25.9 ± 4.4 | 17.9 ± 2.8 | decreased significantly | Thermal stability of PRELID3b (CETSA) (PRELID3b; 15 uM): stabilization; Formation of tube (MS 1 cells; 15 μM): inhibition is more obvious; Kd smaller than Kd of CK (PRELID3b-TRIAP1-MBP): ~7 fold; Amount of CK found in CKD-4 treated cells (A549 cells [4]; 4 h): 1.33 % of total amount of CKD-4; Amount of CK found in CKD-4 treated cells (A549 cells [4]; 24 h): 1.05 % of total amount of CKD-4; Percentage of apoptotic cells (A549 cells [5]; A549, 20 μM): significant increase in the percentage of apoptotic cells; Thermal stability of PRELID1 (CETSA) (PRELID1 [6]; 15 μM): stabilization; Cell viability with supplement of PG (A549 cells [7]; A549, 12.5 μM): almost two-fold restored; Level of cytochrome c in cytosol ([8]; 15 μM): dramatically enhanced; Cytochrome c release with PG in medium ([8]; 15 μM): Reduced level of cytochrome c was released; Cytotoxic potency in comparison with CK (NCI-H460 cells [11]): three-fold more potent; Suppression of cell viability ([12]; 20 μM, CellTiterGlo): less than 30%; Growth of patient derived organoid ([12]; 5, 10, 20, 35 and 50 μM): significantly inhibits the growth of patient derived organoid in a dose dependent manner |
| CC(C)=CCC[C@](C)(OC1O[C@H](CO)[C@@H](O)[C@H](O)[C@H]1O)C1CC[C@]2(C)C1[C@H](O)CC1[C@@]3(C)CC[C@H](O)C(C)(C)C3CC[C@]12C (stereo partly drawn) [CK, 20-O-β-(D-glucopyranosyl)-20(S)-protopanaxadiol, reference compound] | stabilized | fast on/off rate | 55.7 | 67.1 ± 4.6 | 64 ± 3.3 | 59.1 ± 3.4 | 64.7 ± 9.3 | 53.4 ± 2.4 | 40.5 ± 0.9 | no does-dependent response | No significant change in body weight | almost no difference | 80.7 ± 3.7 | 71.3 ± 7.1 | 59.3 ± 2.8 | 73.6 ± 3.4 | 63.1 ± 2.7 | 42.3 ± 1.5 | decreased significantly | Thermal stability of PRELID3b (CETSA) (PRELID3b; 50 μM): stabilization; Formation of tube (MS 1 cells; 40 μM): inhibited; IC50 (NCI-H460 cells [3]; Homo sapiens, NCI-H460, 72 h, read-out: Cytotoxicity IC50): 45.1 ± 0.4 µM; Percentage of apoptotic cells (A549 cells [5]; A549, 60 μM): significant increase in the percentage of apoptotic cells; Thermal stability of PRELID1 (CETSA) (PRELID1 [6]; 50 μM): stabilization; IC50 (MHCC97-L cells): 49.8 ± 0.3 µM; Cell viability with supplement of PG (A549 cells [7]; A549, 100 μM): almost two-fold restored; IC50 (SW480 cells): 46.2 ± 2.1 µM; Level of cytochrome c in cytosol ([8]; 50 μM): dramatically enhanced; Cytochrome c release with PG in medium ([8]; 50 μM): not observed; IC50 (HepG2 cells): 43.6 ± 1.6 µM; IC50 (Hela cells): 36.2 ± 1.2 µM |
| CC(=O)OCC1OC(OC(C)(CCC=C(C)C)C2CCC3(C)C2C(OC(C)=O)CC2C4(C)CCC(OC(C)=O)C(C)(C)C4CCC23C)C(OC(C)=O)C(OC(C)=O)C1OC(C)=O (centres unmarked) [CKD-1] |  |  |  |  |  |  |  |  |  |  |  |  |  |  |  |  |  |  |  | IC50 (NCI-H460 cells [3]; read-out: Cytotoxicity IC50, NCI-H460 cells, 48 h (Table 2)): > 100 µM; Solubility (Solubility): poor solubility |
